The nature of data set [1]: 1-Octanol/aqueous buffer partition coefficient, logD of the compound at pH 7.4 by shake flask technique based UPLC analysis. In kind it is physicochemical.
Data set [2] in a line: Acid dissociation constant, pKa of the compound. The data set is classed as physicochemical.
The nature of data set [3]: Apparent permeability of compound across apical to basal membrane in human Caco-2 by ABBA assay. The data set is classed as ADME, cell-based. Background: Caco-2 cells form a polarised layer with tight junctions and transporters.
A short description of data set [4]: Solubility of the compound in FaSSIF at pH 6.5. In kind it is physicochemical.
The nature of data set [5]: Oral bioavailability in Han Wistar rat at 5 mg/kg. The data set is classed as ADME, organism-based. The conditions noted are these: in vivo.
Data set [6] in a line: Volume of distribution at steady state in Han Wistar rat at 5 mg/kg, po or 2 mg/kg, iv. In kind it is ADME, organism-based. The conditions noted are these: in vivo.
Data set [7] is described as follows: Oral bioavailability in Beagle dog at 2 mg/kg. In kind it is ADME, organism-based, Canis lupus familiaris. The conditions noted are these: in vivo.
Data set [8] can be described thus: Volume of distribution at steady state in Beagle dog at 2 mg/kg, po or 1 mg/kg, iv. The data set is classed as ADME, organism-based, Canis lupus familiaris. The conditions noted are these: in vivo.
Data set [9] in a line: Cardiotoxicity in guinea pig assessed as increase in QTc level by measuring unbound Cmax at 3 to 30 mg/kg administered as iv infusion consecutively for 15 mins. In kind it is toxicity, organism-based, Cavia porcellus. The conditions noted are these: in vivo, dose 3-30 mg/kg.
Data set [10] in a line: Cardiotoxicity in guinea pig assessed as unbound concentration required to increase in QTc level by 10% administered as iv infusion consecutively for 15 mins. In kind it is toxicity, organism-based, Cavia porcellus. The following applies: in vivo.
Data set [11] can be described thus: Solubility of the compound. The data set is classed as physicochemical.

The values that follow come from ChEMBL document CHEMBL5137107, “Optimization of hERG and Pharmacokinetic Properties for Basic Dihydro-8H-purin-8-one Inhibitors of DNA-PK” (ACS Med Chem Lett, 2022).

Values after ≈ are worked out from the molar mass of the structure shown.

As a reminder, the logD is the decadic logarithm of the distribution of all forms, ionised or not, between an organic phase and buffer at a given pH. Higher therefore signals a more lipophilic compound. For orientation: pKa means the pH at which an ionisable group is half protonated. A higher pKa goes with a weaker acid or stronger base. Regarding `Cc1cc2ncccc2cc1Nc1ncc2c(n1)n([C@@H]1CN(C)C[C@H]1F)c(=O)n2C`, the logD in [1] was found to be 2.1. In data set [2], this molecule showed a pKa of 6.5.

The term Papp A→B denotes the apparent permeability from the apical to the basolateral side of a cell layer. Molecule `Cc1cc2ncccc2cc1Nc1ncc2c(n1)n(C1CCNCC1)c(=O)n2C` came in with a logD in [1] of 0.5. The Papp A→B in data set [3] came to 0.7 ×10⁻⁶ cm/s.

On to `Cc1cc2nnccc2cc1Nc1ncc2c(n1)n(C1CCOCC1)c(=O)n2C`, for which, in [1], the logD came out at 2.2.

In data set [1], `Cc1cc2ncccc2cc1Nc1ncc2c(n1)n([C@H]1CCN(CCO)C1)c(=O)n2C` displayed a logD of 0.9. The Papp A→B in data set [3] came out at 2.6 ×10⁻⁶ cm/s. Also, the pKa in data set [2] worked out at 8.2.

In general, solubility refers to the dissolved amount per volume that the medium holds. As usually defined, the bioavailability is dose-corrected exposure relative to a reference, in per cent. As for `Cc1cc2ncccc2cc1Nc1ncc2c(n1)n([C@@H]1CNC[C@H]1F)c(=O)n2C`, in [1], the logD was 1.6. For the same molecule, the Papp A→B in data set [3] came out at 9.4 ×10⁻⁶ cm/s. The solubility in data set [4] was 872 µM (≈ 343 µg/mL). Further, the bioavailability in data set [5] stood at 58%; in data set [7] it was 52%. Moreover, the Vdss in data set [6] stood at 2.1 L/kg; in [8], 5.4 L/kg. In [2], this molecule displayed a pKa of 7.3.

For `COCCN1CC[C@H](n2c(=O)n(C)c3cnc(Nc4cc5cccnc5cc4C)nc32)C1`, in data set [1], the logD was determined as 1.7.

In data set [1], `Cc1cc2ncccc2cc1Nc1ncc2c(n1)n([C@@H]1CNC[C@@H]1F)c(=O)n2C` displayed a logD of 1.7. The pKa in [2] amounted to 7.2.

For `Cc1cc2nccnc2cc1Nc1ncc2c(n1)n(C1CCN(C)CC1)c(=O)n2C`, the logD in [1] was 1.2.

In the case of `Cc1cc2ncccc2cc1Nc1ncc2c(n1)n([C@@H]1CCN(C)C1)c(=O)n2C`, in [1], the logD came to 1.2. Further, the pKa in data set [2] is 8.7.

By EC10 is commonly meant the point of the concentration-response curve where the effect stands at 10%. As to `Cc1cc2ncccc2cc1Nc1ncc2c(n1)n([C@H]1CCN(C)C1)c(=O)n2C`, in data set [1], the logD is 1.1. In data set [9], the EC10 turned out to be 3.9 µM. The Papp A→B in data set [3] is 19 ×10⁻⁶ cm/s. Besides, in data set [2], the pKa was 8.9.

In turn, `Cc1cc2ncnn2cc1Nc1ncc2c(n1)n(C1CCN(C)CC1)c(=O)n2C` came in with a logD in data set [1] of 0.3.

For `Cc1cc2nccnc2cc1Nc1ncc2c(n1)n(C1CCOCC1)c(=O)n2C`, the logD in data set [1] was 2.2.

In turn, `Cc1cc2ncccc2cc1Nc1ncc2c(n1)n(C1CCN(C)CC1)c(=O)n2C` gave a logD in data set [1] of 1.8. Further, the concentration for an effect of 10% (EC10) in data set [10] turned out to be 2.3 µM. The Papp A→B in [3] came to 14 ×10⁻⁶ cm/s. Besides, the pKa in data set [2] was 8.2. The same molecule showed a solubility in data set [11] of 178 µM (≈ 71.8 µg/mL).

In turn, `Cc1cc2ncccc2cc1Nc1ncc2c(n1)n([C@@H]1CN(C)C[C@@H]1F)c(=O)n2C` came in with a logD in [1] of 2.2.

As for `Cc1cc2ncnn2cc1Nc1ncc2c(n1)n(C1CCOCC1)c(=O)n2C` [AZD-7648], the logD in data set [1] came out at 1.3.

`Cc1cc2ncccc2cc1Nc1ncc2c(n1)n(C1CCOCC1)c(=O)n2C` showed a logD in data set [1] of 2.5.

`Cc1cc2ncccc2cc1Nc1ncc2c(n1)n([C@H]1CCN(C3COC3)C1)c(=O)n2C` displayed a pH-dependent lipophilicity (logD) in data set [1] of 1.5.

With `Cc1cc2ncncc2cc1Nc1ncc2c(n1)n(C1CCOCC1)c(=O)n2C`, the logD in data set [1] was determined as 2.2.

Molecule `Cc1cc2nnccc2cc1Nc1ncc2c(n1)n(C1CCN(C)CC1)c(=O)n2C` displayed a logD in data set [1] of 1.2.
